How the values were obtained:
[1] = test system: Glomerella laqenarium (Colletotrichum lagenarium); test: Fungicidal activity against Glomerella lagenarium (Colletotrichum lagenarium) liquid culture / cucumber / preventative (anthracnose); format: cell-based; conditions: Colletotrichum orbiculare; 20 ppm in the applied formulation; liquid culture in PDB, 24° C., 3 to 4 days after application; read-out: disease control compared to untreated control (inhibition of growth measured photometrically)
Protocol: Mycelia fragments or conidia suspensions of a fungus prepared either freshly from liquid cultures of the fungus or from cryogenic storage, are directly mixed into nutrient broth. DMSO solutions of the test compound (max. 10 mg/ml) are diluted with 0.025% Tween20 by a factor of 50 and 10 μl of this solution is pipetted into a microtiter plate (96-well format). The nutrient broth containing the fungal spores/mycelia fragments is then added to give an end concentration of the tested compound. The test plates are incubated in the dark at 24° C. and 96% relative humidity. The inhibition of fungal growth is determined photometrically after 2 to 7 days, depending on the pathosystem, and percent antifungal activity relative to the untreated check is calculated.
Example 4: Fungicidal Activity Against Glomerella laqenarium (Colletotrichum lagenarium) Liquid Culture/Cucumber/Preventative (Anthracnose)
Conidia of the fungus from cryogenic storage are directly mixed into nutrient broth (PDB—potato dextrose broth). After placing a (DMSO) solution of test compound into a microtiter plate (96-well format), the nutrient broth containing the fungal spores is added. The test plates are incubated at 24° C. and the inhibition of growth is measured photometrically 3 to 4 days after application.
The following compounds at 20 ppm in the applied formulation give at least 80% disease control in this test when compared to untreated control under the same conditions, which show extensive disease development.

Phakopsora pachyrhizi = test: Fungicidal activity against Phakopsora pachyrhizi / soybean / leaf disc preventative (Asian soybean rust); format: in vivo; conditions: foliar, 200 ppm in the applied formulation, soybean leaf disks, preventative (inoculated one day after application), assessed 12 to 14 days after application, read-out: disease control compared to untreated control leaf disks
Protocol: (§1) Leaf disks or leaf segments of various plant species are cut from plants grown in a greenhouse. The cut leaf disks or segments are placed in multiwell plates (24-well format) onto water agar. The leaf disks are sprayed with a test solution before (preventative) or after (curative) inoculation. Compounds to be tested are prepared as DMSO solutions (max. 10 mg/ml) which are diluted to the appropriate concentration with 0.025% Tween20 just before spraying. The inoculated leaf disks or segments are incubated under defined conditions (temperature, relative humidity, light, etc.) according to the respective test system. A single evaluation of disease level is carried out 3 to 14 days after inoculation, depending on the pathosystem. Percent disease control relative to the untreated check leaf disks or segments is then calculated. General Examples of Liquid Culture Tests in Well Plates:
Example 3: Fungicidal Activity Against Phakopsora pachyrhizi/Soybean/Leaf Disc Preventative (Asian Soybean Rust)
Soybean leaf disks are placed on water agar in multiwell plates (24-well format) and sprayed with the formulated test compound diluted in water. One day after application leaf discs are inoculated by spraying a spore suspension on the lower leaf surface. After an incubation period in a climate cabinet of 24-36 hours in darkness at 20° C. and 75% rh leaf disc are kept at 20° C. with 12 h light/day and 75% rh. The activity of a compound is assessed as percent disease control compared to untreated when an appropriate level of disease damage appears in untreated check leaf disks (12 to 14 days after application).
(§2) The following compounds at 200 ppm in the applied formulation give at least 80% disease control in this test when compared to untreated control leaf disks under the same conditions, which show extensive disease development.

[2] = test system: Puccinia recondita f. sp. tritici; test: Fungicidal activity against Puccinia recondita f. sp. tritici / wheat / leaf disc curative (brown rust); format: in vivo; conditions: foliar, 200 ppm in the applied formulation, wheat leaf segments cv. Kanzler, curative (applied 1 day after inoculation), assessed 6 to 8 days after application, read-out: disease control compared to untreated control leaf disks
Protocol: as §1
Example 2: Fungicidal Activity Against Puccinia recondita f. sp. Tritici/Wheat/Leaf Disc Curative (Brown Rust)
Wheat leaf segments cv. Kanzler are placed on agar in multiwell plates (24-well format). The leaf segments are then inoculated with a spore suspension of the fungus. Plates were stored in darkness at 19° C. and 75% relative humidity. The formulated test compound diluted in water was applied 1 day after inoculation. The leaf segments were incubated at 19° C. and 75% relative humidity under a light regime of 12 hours light/12 hours darkness in a climate cabinet and the activity of a compound was assessed as percent disease control compared to untreated when an appropriate level of disease damage appears in untreated check leaf segments (6 to 8 days after application).
as §2

[3] = test system: Puccinia recondita f. sp. tritici; test: Fungicidal activity against Puccinia recondita f. sp. tritici / wheat / leaf disc preventative (brown rust); format: in vivo; conditions: foliar, 200 ppm in the applied formulation, wheat leaf segments cv. Kanzler, preventative (inoculated 1 day after application), assessed 7 to 9 days after application, read-out: disease control compared to untreated control leaf disks
Protocol: as §1
Example 1: Fungicidal Activity Against Puccinia recondita f. sp. tritici/Wheat/Leaf Disc Preventative (Brown Rust)
Wheat leaf segments cv. Kanzler were placed on agar in multiwell plates (24-well format) and sprayed with the formulated test compound diluted in water. The leaf disks were inoculated with a spore suspension of the fungus 1 day after application. The inoculated leaf segments were incubated at 19C and 75% relative humidity (rh) under a light regime of 12 hours light/12 hours darkness in a climate cabinet and the activity of a compound was assessed as percent disease control compared to untreated when an appropriate level of disease damage appears in untreated check leaf segments (7 to 9 days after application).
as §2

CC(C)CCNC(=O)c1ccc(-c2noc(C(F)(F)F)n2)cc1 [Compound 3a.38, N-isopentyl-4-[5-(trifluoromethyl)-1,2,4-oxadiazol-3-yl]benzamide]
≥ 80%: inhibition at 20 ppm [1] | pest or weed control at 200 ppm (Phakopsora pachyrhizi) | pest or weed control at 200 ppm [2] | pest or weed control at 200 ppm [3]

CN(CCOC(F)F)C(=O)c1ccc(-c2noc(C(F)(F)F)n2)cc1 [Compound 3a.44, N-[2-(difluoromethoxy)ethyl]-N-methyl-4-[5-(trifluoromethyl)-1,2,4-oxadiazol-3-yl]benzamide]
≥ 80%: inhibition at 20 ppm [1] | pest or weed control at 200 ppm (Phakopsora pachyrhizi) | pest or weed control at 200 ppm [2] | pest or weed control at 200 ppm [3]

C=CCN(CC)C(=O)c1ccc(-c2noc(C(F)(F)F)n2)cc1F [Compound 3b.30, N-allyl-N-ethyl-2-fluoro-4-[5-(trifluoromethyl)-1,2,4-oxadiazol-3-yl]benzamide]
≥ 80%: inhibition at 20 ppm [1] | pest or weed control at 200 ppm (Phakopsora pachyrhizi) | pest or weed control at 200 ppm [2] | pest or weed control at 200 ppm [3]

O=C(NCCCCCl)c1ccc(-c2noc(C(F)(F)F)n2)cc1 [Compound 3a.20, N-(4-chlorobutyl)-4-[5-(trifluoromethyl)-1,2,4-oxadiazol-3-yl]benzamide]
≥ 80%: inhibition at 20 ppm [1] | pest or weed control at 200 ppm (Phakopsora pachyrhizi) | pest or weed control at 200 ppm [2] | pest or weed control at 200 ppm [3]

O=C(Nc1nc(Br)n[nH]1)c1ccc(-c2noc(C(F)(F)F)n2)cc1 [Compound 5a.6, N-(3-bromo-1H-1,2,4-triazol-5-yl)-4-[5-(trifluoromethyl)-1,2,4-oxadiazol-3-yl]benzamide]
≥ 80%: inhibition at 20 ppm [1] | pest or weed control at 200 ppm (Phakopsora pachyrhizi) | pest or weed control at 200 ppm [2] | pest or weed control at 200 ppm [3]

CCC(C)NC(=O)c1ccc(-c2noc(C(F)(F)F)n2)cc1 (stereo not shown) [Compound 3a.7, N-sec-butyl-4-[5-(trifluoromethyl)-1,2,4-oxadiazol-3-yl]benzamide]
≥ 80%: inhibition at 20 ppm [1] | pest or weed control at 200 ppm (Phakopsora pachyrhizi) | pest or weed control at 200 ppm [2] | pest or weed control at 200 ppm [3]

CCC(COC)NC(=O)c1ccc(-c2noc(C(F)(F)F)n2)cc1 (stereo not shown) [Compound 3a.9, N-[1-(methoxymethyl)propyl]-4-[5-(trifluoromethyl)-1,2,4-oxadiazol-3-yl]benzamide]
≥ 80%: inhibition at 20 ppm [1] | pest or weed control at 200 ppm (Phakopsora pachyrhizi) | pest or weed control at 200 ppm [2] | pest or weed control at 200 ppm [3]

COCC(C)NC(=O)c1ccc(-c2noc(C(F)(F)F)n2)cc1F (stereo not shown) [Compound 3b.40, 2-fluoro-N-(2-methoxy-1-methyl-ethyl)-4-[5-(trifluoromethyl)-1,2,4-oxadiazol-3-yl]benzamide]
≥ 80%: inhibition at 20 ppm [1] | pest or weed control at 200 ppm (Phakopsora pachyrhizi) | pest or weed control at 200 ppm [2] | pest or weed control at 200 ppm [3]

C#CCN(C)C(=O)c1ccc(-c2noc(C(F)(F)F)n2)cc1F [Compound 3b.44, 2-fluoro-N-methyl-N-prop-2-ynyl-4-[5-(trifluoromethyl)-1,2,4-oxadiazol-3-yl]benzamide]
≥ 80%: inhibition at 20 ppm [1] | pest or weed control at 200 ppm (Phakopsora pachyrhizi) | pest or weed control at 200 ppm [2] | pest or weed control at 200 ppm [3]

CC(C)OCCNC(=O)c1ccc(-c2noc(C(F)(F)F)n2)cc1F [Compound 3b.43, 2-fluoro-N-(2-isopropoxyethyl)-4-[5-(trifluoromethyl)-1,2,4-oxadiazol-3-yl]benzamide]
≥ 80%: inhibition at 20 ppm [1] | pest or weed control at 200 ppm (Phakopsora pachyrhizi) | pest or weed control at 200 ppm [2] | pest or weed control at 200 ppm [3]

CCN(C(=O)c1ccc(-c2noc(C(F)(F)F)n2)cc1F)C(C)C [Compound 3b.35, N-ethyl-2-fluoro-N-isopropyl-4-[5-(trifluoromethyl)-1,2,4-oxadiazol-3-yl]benzamide]
≥ 80%: inhibition at 20 ppm [1] | pest or weed control at 200 ppm (Phakopsora pachyrhizi) | pest or weed control at 200 ppm [2] | pest or weed control at 200 ppm [3]

CCCN(C)C(=O)c1ccc(-c2noc(C(F)(F)F)n2)cc1 [Compound 3a.33, N-methyl-N-propyl-4-[5-(trifluoromethyl)-1,2,4-oxadiazol-3-yl]benzamide]
≥ 80%: inhibition at 20 ppm [1] | pest or weed control at 200 ppm (Phakopsora pachyrhizi) | pest or weed control at 200 ppm [2] | pest or weed control at 200 ppm [3]

CC(=O)CC(C)(C)NC(=O)c1ccc(-c2noc(C(F)(F)F)n2)cc1 [Compound 3a.16, N-(1,1-dimethyl-3-oxo-butyl)-4-[5-(trifluoromethyl)-1,2,4-oxadiazol-3-yl]benzamide]
≥ 80%: inhibition at 20 ppm [1] | pest or weed control at 200 ppm (Phakopsora pachyrhizi) | pest or weed control at 200 ppm [2] | pest or weed control at 200 ppm [3]

CC(C)N(C)C(=O)c1ccc(-c2noc(C(F)(F)F)n2)cc1F [Compound 3b.36, 2-fluoro-N-isopropyl-N-methyl-4-[5-(trifluoromethyl)-1,2,4-oxadiazol-3-yl]benzamide]
≥ 80%: inhibition at 20 ppm [1] | pest or weed control at 200 ppm (Phakopsora pachyrhizi) | pest or weed control at 200 ppm [2] | pest or weed control at 200 ppm [3]

O=C(NCCCCCO)c1ccc(-c2noc(C(F)(F)F)n2)cc1F [Compound 3b.22, 2-fluoro-N-(5-hydroxypentyl)-4-[5-(trifluoromethyl)-1,2,4-oxadiazol-3-yl]benzamide]
≥ 80%: inhibition at 20 ppm [1] | pest or weed control at 200 ppm (Phakopsora pachyrhizi) | pest or weed control at 200 ppm [2] | pest or weed control at 200 ppm [3]

COCCN(C(=O)c1ccc(-c2noc(C(F)(F)F)n2)cc1)C(C)C [Compound 3a.12, N-isopropyl-N-(2-methoxyethyl)-4-[5-(trifluoromethyl)-1,2,4-oxadiazol-3-yl]benzamide]
≥ 80%: inhibition at 20 ppm [1] | pest or weed control at 200 ppm (Phakopsora pachyrhizi) | pest or weed control at 200 ppm [2] | pest or weed control at 200 ppm [3]

CC(C)(O)CNC(=O)c1ccc(-c2noc(C(F)(F)F)n2)cc1F [Compound 3b.29, 2-fluoro-N-(2-hydroxy-2-methyl-propyl)-4-[5-(trifluoromethyl)-1,2,4-oxadiazol-3-yl]benzamide]
≥ 80%: inhibition at 20 ppm [1] | pest or weed control at 200 ppm (Phakopsora pachyrhizi) | pest or weed control at 200 ppm [2] | pest or weed control at 200 ppm [3]

C=C(C)CN(CC)C(=O)c1ccc(-c2noc(C(F)(F)F)n2)cc1F [Compound 3b.33, N-ethyl-2-fluoro-N-(2-methylallyl)-4-[5-(trifluoromethyl)-1,2,4-oxadiazol-3-yl]benzamide]
≥ 80%: inhibition at 20 ppm [1] | pest or weed control at 200 ppm (Phakopsora pachyrhizi) | pest or weed control at 200 ppm [2] | pest or weed control at 200 ppm [3]

CN(C(=O)c1ccc(-c2noc(C(F)(F)F)n2)cc1)C(C)(C)C [Compound 3a.35, N-tert-butyl-N-methyl-4-[5-(trifluoromethyl) 1,2,4-oxadiazol-3-yl]benzamide]
≥ 80%: inhibition at 20 ppm [1] | pest or weed control at 200 ppm (Phakopsora pachyrhizi) | pest or weed control at 200 ppm [2] | pest or weed control at 200 ppm [3]

Reference: patent US10959432B2, “Microbiocidal oxadiazole derivatives” (Syngenta Participations AG, priority 2016, dated 2021)
